For 1 molecule, Solubility in water results are on record in patent US11053516B2, “Glucose composition, microbial fermentation raw material, and method of producing chemical product” (Toray Industries, Inc., priority 2016, dated 2021).

SMILES strings stand for the structures.

The text on this data set:
Further, the glucose composition was adjusted to a final pH of 7 using 6 N sodium hydroxide.

For the molecule `O=C(O)/C=C/c1ccc(O)cc1` [Coumaric acid, trans-p-coumaric acid], the Solubility in water entry is “not dissolved”.
